Key:
guanosine triphosphate = compound: Nc1nc2c(ncn2[C@@H]2O[C@H](COP(=O)(O)OP(=O)(O)OP(=O)(O)O)[C@@H](O)[C@H]2O)c(=O)[nH]1 [guanosine triphosphate]; test: pEC50 of GTP-induced change in protein thermal stability (2D-TPP)
Description: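 2D thermal proteome profiling in Jurkat crude lysate. Lysate was treated 10 min at room temperature with Na-GTP (0, 0.001, 0.01, 0.1, 0.5 mM), heated to 12 temperatures (42-63.9 °C) for 3 min, and soluble protein was quantified by TMT10 LC-MS/MS. pEC50 is the median over replicates of dose-response fits (FDR-controlled hits).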

adenosine triphosphate = compound: Nc1ncnc2c1ncn2[C@@H]1O[C@H](COP(=O)(O)OP(=O)(O)OP(=O)(O)O)[C@@H](O)[C@H]1O [adenosine triphosphate]; test: pEC50 of ATP-induced change in protein thermal stability (2D-TPP)
Method in brief: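 Soluble protein was quantified by TMT LC-MS/MS after ultracentrifugation of Jurkat crude lysate that had been dosed at five concentrations including vehicle (10 min, room temperature), heated at 12 temperatures of 42–63.9 °C for 3 min, and incubated with NP40 and benzonase at 4 °C for 60 min. Fold changes against vehicle at each temperature were median-normalised, and pEC50 was derived from per-replicate dose-response fits over adjacent temperature pairs. Hits were called with permutation-based false discovery rate control in three independent experiments.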
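For pEC50 of ATP-induced change in protein thermal stability (2D-TPP) in this document: lysate dosed with Na-ATP at 0 0.005 0.05 0.5 and 2 mM.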

Chain of UniProt P14868 (P14868 whole entry): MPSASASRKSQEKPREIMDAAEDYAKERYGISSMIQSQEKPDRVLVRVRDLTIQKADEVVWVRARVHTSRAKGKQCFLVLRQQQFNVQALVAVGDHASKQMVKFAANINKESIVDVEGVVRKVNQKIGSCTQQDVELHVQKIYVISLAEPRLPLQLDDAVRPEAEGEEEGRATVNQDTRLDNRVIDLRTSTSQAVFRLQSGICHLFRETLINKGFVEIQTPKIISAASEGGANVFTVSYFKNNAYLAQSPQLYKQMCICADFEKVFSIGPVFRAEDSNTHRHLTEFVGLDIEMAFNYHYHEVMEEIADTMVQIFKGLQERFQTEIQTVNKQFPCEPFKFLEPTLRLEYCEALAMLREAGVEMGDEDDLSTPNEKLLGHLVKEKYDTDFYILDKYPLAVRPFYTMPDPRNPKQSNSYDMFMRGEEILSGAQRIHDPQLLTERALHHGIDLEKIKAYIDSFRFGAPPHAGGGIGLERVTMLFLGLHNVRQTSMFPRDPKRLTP
Chain of UniProt Q14088 (Q14088 whole entry): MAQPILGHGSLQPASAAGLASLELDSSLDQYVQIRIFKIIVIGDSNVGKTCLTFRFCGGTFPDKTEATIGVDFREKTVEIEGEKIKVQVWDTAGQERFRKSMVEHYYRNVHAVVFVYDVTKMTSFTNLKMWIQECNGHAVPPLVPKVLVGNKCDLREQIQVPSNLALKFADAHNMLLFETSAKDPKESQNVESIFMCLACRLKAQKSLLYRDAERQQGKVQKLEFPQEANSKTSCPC
Chain of UniProt O43776 (O43776 whole entry): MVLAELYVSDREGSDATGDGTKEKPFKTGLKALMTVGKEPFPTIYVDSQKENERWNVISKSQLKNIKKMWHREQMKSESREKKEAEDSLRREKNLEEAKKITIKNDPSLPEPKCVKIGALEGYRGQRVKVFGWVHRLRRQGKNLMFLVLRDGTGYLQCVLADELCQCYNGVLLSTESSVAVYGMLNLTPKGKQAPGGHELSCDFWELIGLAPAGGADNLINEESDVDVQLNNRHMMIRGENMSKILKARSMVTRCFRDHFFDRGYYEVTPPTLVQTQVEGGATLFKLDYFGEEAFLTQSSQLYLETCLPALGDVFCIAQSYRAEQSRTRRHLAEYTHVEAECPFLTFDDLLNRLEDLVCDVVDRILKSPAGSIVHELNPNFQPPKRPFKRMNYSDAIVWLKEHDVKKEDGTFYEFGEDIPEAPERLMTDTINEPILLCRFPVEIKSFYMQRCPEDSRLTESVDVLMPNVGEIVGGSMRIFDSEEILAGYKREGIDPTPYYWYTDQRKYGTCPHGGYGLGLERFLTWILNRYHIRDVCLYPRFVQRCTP
Chain of UniProt Q9Y5P6 (Q9Y5P6 whole entry): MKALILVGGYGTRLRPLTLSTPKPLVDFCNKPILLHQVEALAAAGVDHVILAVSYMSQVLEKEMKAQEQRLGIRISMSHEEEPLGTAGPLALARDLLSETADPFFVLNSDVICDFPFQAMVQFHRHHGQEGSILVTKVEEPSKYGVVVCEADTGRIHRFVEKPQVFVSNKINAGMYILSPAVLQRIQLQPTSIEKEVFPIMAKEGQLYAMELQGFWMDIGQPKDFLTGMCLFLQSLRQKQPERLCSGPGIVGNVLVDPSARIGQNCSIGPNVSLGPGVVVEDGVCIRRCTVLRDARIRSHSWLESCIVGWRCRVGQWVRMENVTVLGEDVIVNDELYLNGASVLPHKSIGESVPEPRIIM
Chain of UniProt P07437 (P07437 whole entry): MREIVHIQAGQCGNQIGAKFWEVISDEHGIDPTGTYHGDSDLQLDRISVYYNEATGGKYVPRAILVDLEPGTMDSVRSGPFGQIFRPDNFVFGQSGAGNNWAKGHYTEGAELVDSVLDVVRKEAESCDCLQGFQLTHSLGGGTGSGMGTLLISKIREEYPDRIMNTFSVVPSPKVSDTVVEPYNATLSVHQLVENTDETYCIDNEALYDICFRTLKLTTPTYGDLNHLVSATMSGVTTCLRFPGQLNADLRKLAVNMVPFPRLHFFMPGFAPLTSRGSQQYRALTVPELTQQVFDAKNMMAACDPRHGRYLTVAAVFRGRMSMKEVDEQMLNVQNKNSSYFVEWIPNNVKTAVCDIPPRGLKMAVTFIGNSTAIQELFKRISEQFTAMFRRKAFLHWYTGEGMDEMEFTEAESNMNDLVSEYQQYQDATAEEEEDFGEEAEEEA
Chain of UniProt Q14566 (Q14566 whole entry): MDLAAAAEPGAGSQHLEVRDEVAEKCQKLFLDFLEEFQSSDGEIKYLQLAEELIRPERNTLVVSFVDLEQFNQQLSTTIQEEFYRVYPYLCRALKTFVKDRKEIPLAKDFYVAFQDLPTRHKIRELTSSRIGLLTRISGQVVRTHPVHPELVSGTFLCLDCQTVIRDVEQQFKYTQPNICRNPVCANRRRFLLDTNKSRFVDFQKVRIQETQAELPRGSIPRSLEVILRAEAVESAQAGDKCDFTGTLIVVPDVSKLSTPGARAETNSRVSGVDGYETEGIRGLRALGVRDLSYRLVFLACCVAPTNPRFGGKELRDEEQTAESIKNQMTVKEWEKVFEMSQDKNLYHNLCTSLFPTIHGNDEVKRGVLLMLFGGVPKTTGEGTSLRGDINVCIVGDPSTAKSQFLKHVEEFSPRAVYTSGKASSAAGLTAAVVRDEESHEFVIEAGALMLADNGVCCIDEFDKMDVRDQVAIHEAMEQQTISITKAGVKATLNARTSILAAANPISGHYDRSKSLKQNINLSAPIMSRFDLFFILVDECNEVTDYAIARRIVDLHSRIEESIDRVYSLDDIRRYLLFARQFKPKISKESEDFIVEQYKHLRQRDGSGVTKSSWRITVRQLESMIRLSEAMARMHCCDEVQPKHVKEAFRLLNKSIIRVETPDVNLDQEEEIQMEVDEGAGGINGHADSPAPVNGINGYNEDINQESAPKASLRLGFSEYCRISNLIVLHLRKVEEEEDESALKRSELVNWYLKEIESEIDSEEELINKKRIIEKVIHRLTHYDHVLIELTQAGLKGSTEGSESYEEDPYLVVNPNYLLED
Chain of UniProt P51148 (P51148 whole entry): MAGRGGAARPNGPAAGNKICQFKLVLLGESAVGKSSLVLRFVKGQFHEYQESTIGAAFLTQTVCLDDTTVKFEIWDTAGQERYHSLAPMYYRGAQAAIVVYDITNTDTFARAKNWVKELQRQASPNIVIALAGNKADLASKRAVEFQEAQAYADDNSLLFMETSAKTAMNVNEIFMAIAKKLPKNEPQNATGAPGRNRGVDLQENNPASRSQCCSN
Chain of UniProt P22314 (P22314 whole entry): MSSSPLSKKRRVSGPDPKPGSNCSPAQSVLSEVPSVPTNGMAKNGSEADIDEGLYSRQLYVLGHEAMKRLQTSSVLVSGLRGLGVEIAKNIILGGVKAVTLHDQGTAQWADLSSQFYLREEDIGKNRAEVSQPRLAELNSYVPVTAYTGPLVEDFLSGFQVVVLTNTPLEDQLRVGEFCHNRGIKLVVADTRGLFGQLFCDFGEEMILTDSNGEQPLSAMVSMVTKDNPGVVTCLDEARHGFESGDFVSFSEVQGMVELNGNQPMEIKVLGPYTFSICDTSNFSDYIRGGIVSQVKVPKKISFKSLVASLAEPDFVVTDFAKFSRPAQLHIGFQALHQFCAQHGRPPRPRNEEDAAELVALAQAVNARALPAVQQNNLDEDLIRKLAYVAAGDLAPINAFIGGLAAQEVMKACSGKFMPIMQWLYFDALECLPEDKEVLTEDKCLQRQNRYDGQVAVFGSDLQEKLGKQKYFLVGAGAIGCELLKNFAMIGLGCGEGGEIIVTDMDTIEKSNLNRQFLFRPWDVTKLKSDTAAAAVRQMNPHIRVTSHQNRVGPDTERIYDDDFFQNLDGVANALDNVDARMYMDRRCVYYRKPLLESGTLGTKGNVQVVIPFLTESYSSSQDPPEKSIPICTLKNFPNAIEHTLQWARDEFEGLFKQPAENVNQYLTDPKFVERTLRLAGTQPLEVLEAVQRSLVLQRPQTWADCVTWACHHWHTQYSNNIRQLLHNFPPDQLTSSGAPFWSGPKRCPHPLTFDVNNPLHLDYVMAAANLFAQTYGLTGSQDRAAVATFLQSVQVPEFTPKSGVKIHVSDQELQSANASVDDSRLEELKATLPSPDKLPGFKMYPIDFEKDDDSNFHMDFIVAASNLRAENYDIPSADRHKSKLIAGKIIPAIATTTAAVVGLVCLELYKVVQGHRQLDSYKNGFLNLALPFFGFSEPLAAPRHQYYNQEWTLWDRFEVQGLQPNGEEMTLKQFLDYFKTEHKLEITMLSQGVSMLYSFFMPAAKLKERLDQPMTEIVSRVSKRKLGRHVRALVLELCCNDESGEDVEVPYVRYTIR
Chain of UniProt O00139 (O00139 whole entry): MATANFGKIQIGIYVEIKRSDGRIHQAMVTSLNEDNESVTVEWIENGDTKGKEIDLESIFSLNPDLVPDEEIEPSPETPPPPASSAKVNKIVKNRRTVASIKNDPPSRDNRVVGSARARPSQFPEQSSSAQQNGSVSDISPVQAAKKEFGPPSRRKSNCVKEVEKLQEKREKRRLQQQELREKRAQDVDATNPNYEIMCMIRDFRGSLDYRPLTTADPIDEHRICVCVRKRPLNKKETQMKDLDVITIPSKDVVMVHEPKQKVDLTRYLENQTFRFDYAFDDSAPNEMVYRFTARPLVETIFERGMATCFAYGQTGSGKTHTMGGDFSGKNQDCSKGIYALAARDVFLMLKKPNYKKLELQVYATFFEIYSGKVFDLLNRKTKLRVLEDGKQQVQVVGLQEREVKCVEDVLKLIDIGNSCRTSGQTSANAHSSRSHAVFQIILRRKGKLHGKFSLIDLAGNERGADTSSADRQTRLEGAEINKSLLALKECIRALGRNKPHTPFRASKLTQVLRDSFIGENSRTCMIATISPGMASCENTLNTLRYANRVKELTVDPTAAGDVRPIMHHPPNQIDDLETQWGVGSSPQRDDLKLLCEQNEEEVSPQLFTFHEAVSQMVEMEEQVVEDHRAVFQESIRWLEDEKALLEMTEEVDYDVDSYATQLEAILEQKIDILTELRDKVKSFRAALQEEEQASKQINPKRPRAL

Target	pEC50 (guanosine triphosphate)	pEC50 (adenosine triphosphate)
UniProt O43776 (effect direction: stabilized)	4.05	4.13
ACTR3 (effect direction: stabilized) (UniProt P61158)	3.93	4.25
ACSS1 (effect direction: stabilized) (UniProt Q9NUB1)	< 3.3	3.42
RABL3 (effect direction: stabilized) (UniProt Q5HYI8)	3.95	3.4
MTHFS (effect direction: stabilized) (UniProt P49914)	3.75	3.33
ARPC1B (effect direction: stabilized) (UniProt O15143)	3.83	4.25
UniProt P36542 (effect direction: stabilized)	4.12	4.25
UniProt P52564 (effect direction: stabilized)	3.9	4
TNPO2 (effect direction: stabilized) (UniProt O14787)	< 3.3	< 2.7
RAB2A (effect direction: stabilized) (UniProt P61019)	4.39	3.56
EIF2B5 (effect direction: stabilized) (UniProt Q13144)	4.12	3.77
SUCLG1 (effect direction: stabilized) (UniProt P53597)	3.83	3.48
GMPPB (effect direction: stabilized) (UniProt Q9Y5P6)	3.82	3.2
UniProt P08240 (effect direction: stabilized)	3.81	4.01
UniProt P07437 (effect direction: stabilized)	4.05	3.35
RAB2B (effect direction: stabilized) (UniProt Q8WUD1)	4.52	3.45
MCM6 (effect direction: stabilized) (UniProt Q14566)	3.98	4.05
THUMPD1 (effect direction: stabilized) (UniProt Q9NXG2)	3.86	3.08
PEX1 (effect direction: stabilized) (UniProt O43933)	3.72	3.98
UniProt P62820 (effect direction: stabilized)	4.31	3.74
UBA1 (effect direction: stabilized) (UniProt P22314)	3.79	4.18
RAB33A (effect direction: stabilized) (UniProt Q14088)	3.89	3.39
RAB5C (effect direction: stabilized) (UniProt P51148)	4.49	4.22
NUBP2 (effect direction: stabilized) (UniProt Q9Y5Y2)	4.71	3.41
KIF2A (effect direction: stabilized) (UniProt O00139)	4.29	4.21
AFG3L2 (effect direction: stabilized) (UniProt Q9Y4W6)	3.89	4.18
DARS (effect direction: stabilized) (UniProt P14868)	3.9	3.92
UniProt P59998 (effect direction: stabilized)	4.03	3.9
DYNC1LI1 (effect direction: stabilized) (UniProt Q9Y6G9)	3.6	3.71
VPS4B (effect direction: stabilized) (UniProt O75351)	3.92	4.33
